Assay results from patent publication US10709709B2, “Substituted carbonucleoside derivatives useful as anticancer agents” (Pfizer Inc., priority 2016, dated 2020).
pIC50: −log10 of the molar value.

Columns and labels:
[1] = system: A549 lung adenocarcinoma cells; assay: A549 proliferation assay (Cell Titer Glo); format: cell-based; conditions: Homo sapiens, 7 days with compound, cell viability by Cell Titer Glo (ATP)
Procedure: A549 lung adenocarcinoma cells (American Type Culture Collection) were maintained in DMEM growth media (Life Technologies) supplemented with 10% v/v heat inactivated fetal bovine serum (Sigma) and cultured at 37° C., 5% CO2. Exponentially growing A549 cells were plated in 96-well black tissue culture treated plates (Corning) at a density of […] in a volume of 100 μl culture media and allowed to adhere overnight at 37° C., 5% CO2. The following day, compound plates were prepared by making nine-point 3.3-fold dilutions in DMSO with a top concentration of 10 mM. Compounds were further diluted in culture media and 11 μl was added to the cells (final top assay concentration was 10 μM and DMSO was 0.2%). Cells were incubated with compound at 37° C., 5% CO2 for 7 days with media and compound replacement on day 4. Cell viability was assayed on Day 7 by adding 100 μl Cell Titer Glo (Promega) reagent to the plate to measure the amount of ATP present in the cells. Luminescence was read using the Envision 2104 Multilabel Reader (Perkin Elmer). The 50% inhibitory concentration (IC50) was determined using a 4-parameter fit model normalized to the DMSO control in dose response.

[2] = molecular target: PRMT5/MEP50 protein complex (Homo sapiens (Human), UniProt O14744); assay: PRMT5 biochemical assay (3H-SAM methylation of H4(1-21) peptide, filter plate scintillation); conditions: 10 nM PRMT5/MEP50 complex, 200 nM H4(1-21) peptide, 1 uM SAM, 25 minute incubation at room temperature
PRMT5/MEP50 protein complex, sequence (O14744 other isoform, or with tags, fused parts or gaps): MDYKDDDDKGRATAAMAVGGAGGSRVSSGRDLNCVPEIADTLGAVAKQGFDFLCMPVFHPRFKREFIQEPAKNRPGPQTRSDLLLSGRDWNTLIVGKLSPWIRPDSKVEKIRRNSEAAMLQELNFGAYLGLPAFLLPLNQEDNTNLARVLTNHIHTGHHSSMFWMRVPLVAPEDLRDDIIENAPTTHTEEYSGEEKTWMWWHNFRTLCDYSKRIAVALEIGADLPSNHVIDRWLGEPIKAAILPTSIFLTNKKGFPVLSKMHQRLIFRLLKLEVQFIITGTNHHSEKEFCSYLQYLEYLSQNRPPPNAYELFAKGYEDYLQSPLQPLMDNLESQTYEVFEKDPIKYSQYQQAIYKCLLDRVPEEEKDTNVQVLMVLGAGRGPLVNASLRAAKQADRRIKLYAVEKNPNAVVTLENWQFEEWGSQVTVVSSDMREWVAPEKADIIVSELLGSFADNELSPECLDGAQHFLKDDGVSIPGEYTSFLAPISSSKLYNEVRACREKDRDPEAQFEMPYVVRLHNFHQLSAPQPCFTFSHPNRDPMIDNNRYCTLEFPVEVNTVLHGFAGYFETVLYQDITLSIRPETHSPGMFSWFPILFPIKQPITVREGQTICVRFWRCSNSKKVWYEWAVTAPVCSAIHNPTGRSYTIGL
PRMT5/MEP50 protein complex, sequence (Q9BQA1 whole entry partner): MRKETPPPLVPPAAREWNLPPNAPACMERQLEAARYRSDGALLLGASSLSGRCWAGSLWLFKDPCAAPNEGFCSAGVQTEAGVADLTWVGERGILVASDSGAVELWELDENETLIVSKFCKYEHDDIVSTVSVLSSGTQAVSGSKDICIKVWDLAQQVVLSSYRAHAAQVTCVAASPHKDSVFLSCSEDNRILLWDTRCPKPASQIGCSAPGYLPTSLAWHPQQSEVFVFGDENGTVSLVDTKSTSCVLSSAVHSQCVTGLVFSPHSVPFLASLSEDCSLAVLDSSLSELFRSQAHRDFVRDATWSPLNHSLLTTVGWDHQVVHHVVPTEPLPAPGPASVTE
Method in brief: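 Scintillation read-out: after 25 min at room temperature and a TCA stop, tritiated H4(1-21) product (peptide 200 nM) is caught on a filter plate. Reaction holds 10 nM PRMT5/MEP50 and 1 uM 3H-labelled plus cold SAM in 50 mM Tris pH 8.5 with MgCl2, EDTA and TCEP. IC50 values come from a 4-parameter dose-response fit.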

| SMILES | pIC50 ([1]; A549, 168 h) | pIC50 [2] | pIC50 ([1]; 168 h) |
| --- | --- | --- | --- |
| Nc1ncnc2c1c(F)cn2[C@@H]1C[C@H](Oc2cc(Br)c(F)c3c2CNCC3)[C@@H](O)[C@H]1O [Example 109, (1S,2S,3R,5S)-3-(4-amino-5-fluoro-7H-pyrrolo[2,3-d]pyrimidin-7-yl)-5-((6-bromo-5-fluoro-1,2,3,4-tetrahydroisoquinolin-8-yl)oxy)cyclopentane-1,2-diol] | 7.17 | 9.00 |  |
| CN1CCc2cccc(O[C@H]3C[C@@H](n4cc(F)c5c(N)ncnc54)[C@H](O)[C@@H]3O)c2C1 [Example 114, (1S,2S,3R,5S)-3-(4-amino-5-fluoro-7H-pyrrolo[2,3-d]pyrimidin-7-yl)-5-((2-methyl-1,2,3,4-tetrahydroisoquinolin-8-yl)oxy)cyclopentane-1,2-diol] | 5.40 | 8.40 |  |
| Cc1ncnc2c1c(F)cn2[C@@H]1C[C@H](Oc2cccc3c2CNCC3)[C@@H](O)[C@H]1O [Example 117, (1S,2S,3R,5S)-3-(5-fluoro-4-methyl-7H-pyrrolo[2,3-d]pyrimidin-7-yl)-5-((1,2,3,4-tetrahydroisoquinolin-8-yl)oxy)cyclopentane-1,2-diol] | 5.15 | 8.30 |  |
| O[C@@H]1[C@H](O)[C@@H](Oc2cccc3c2CNCC3)C[C@H]1n1ccc2cncnc21 [Example 118, (1S,2S,3R,5S)-3-(7H-pyrrolo[2,3-d]pyrimidin-7-yl)-5-((1,2,3,4-tetrahydroisoquinolin-8-yl)oxy)cyclopentane-1,2-diol] | 5.32 | 8.70 |  |
| Cc1ncnc2c1c(F)cn2[C@@H]1C[C@H](Oc2cc(C#N)cc3c2CNCC3)[C@@H](O)[C@H]1O [Example 119, 8-(((1S,2S,3S,4R)-4-(5-fluoro-4-methyl-7H-pyrrolo[2,3-d]pyrimidin-7-yl)-2,3-dihydroxycyclopentyl)oxy)-1,2,3,4-tetrahydroisoquinoline-6-carbonitrile] | 6.25 | 9.00 |  |
| N#Cc1cc2c(c(O[C@H]3C[C@@H](n4cc(Br)c5c(N)ncnc54)[C@H](O)[C@@H]3O)c1)CNCC2 [Example 120, 8-(((1S,2S,3S,4R)-4-(4-amino-5-bromo-7H-pyrrolo[2,3-d]pyrimidin-7-yl)-2,3-dihydroxycyclopentyl)oxy)-1,2,3,4-tetrahydroisoquinoline-6-carbonitrile] | 6.35 | 9.00 |  |
| Cc1cn([C@@H]2C[C@H](Oc3ccc(F)c4c3CNCC4)[C@@H](O)[C@H]2O)c2ncnc(N)c12 [Example 121, (1S,2S,3R,5S)-3-(4-amino-5-methyl-7H-pyrrolo[2,3-d]pyrimidin-7-yl)-5-((5-fluoro-1,2,3,4-tetrahydroisoquinolin-8-yl)oxy)cyclopentane-1,2-diol] | 6.03 | 9.00 |  |
| Cc1cc2c(c(O[C@H]3C[C@@H](n4cc(C)c5c(N)ncnc54)[C@H](O)[C@@H]3O)c1)CNCC2 [Example 122, (1S,2S,3R,5S)-3-(4-amino-5-methyl-7H-pyrrolo[2,3-d]pyrimidin-7-yl)-5-((6-methyl-1,2,3,4-tetrahydroisoquinolin-8-yl)oxy)cyclopentane-1,2-diol] | 5.35 | 8.52 |  |
| Cc1cc2c(c(O[C@H]3C[C@@H](n4cc(Br)c5c(N)ncnc54)[C@H](O)[C@@H]3O)c1)CNCC2 [Example 123, (1S,2S,3R,5S)-3-(4-amino-5-bromo-7H-pyrrolo[2,3-d]pyrimidin-7-yl)-5-((6-methyl-1,2,3,4-tetrahydroisoquinolin-8-yl)oxy)cyclopentane-1,2-diol] | 6.34 | 8.70 |  |
| Cc1cc2c(c(O[C@H]3C[C@@H](n4cc(F)c5c(C)ncnc54)[C@H](O)[C@@H]3O)c1)CNCC2 [Example 124, (1S,2S,3R,5S)-3-(5-fluoro-4-methyl-7H-pyrrolo[2,3-d]pyrimidin-7-yl)-5-((6-methyl-1,2,3,4-tetrahydroisoquinolin-8-yl)oxy)cyclopentane-1,2-diol] | 5.42 | 8.70 |  |
| Nc1ncnc2c1c(Br)cn2[C@@H]1C[C@H](Oc2cc(F)c(F)c3c2CNCC3)[C@@H](O)[C@H]1O [Example 125, (1S,2S,3R,5S)-3-(4-amino-5-bromo-7H-pyrrolo[2,3-d]pyrimidin-7-yl)-5-((5,6-difluoro-1,2,3,4-tetrahydroisoquinolin-8-yl)oxy)cyclopentane-1,2-diol] | 6.20 | 9.00 |  |
| Cc1nc(N)c2c(F)cn([C@@H]3C[C@H](Oc4ccc(F)c5c4CNCC5)[C@@H](O)[C@H]3O)c2n1 [Example 126, (1S,2S,3R,5S)-3-(4-amino-5-fluoro-2-methyl-7H-pyrrolo[2,3-d]pyrimidin-7-yl)-5-((5-fluoro-1,2,3,4-tetrahydroisoquinolin-8-yl)oxy)cyclopentane-1,2-diol] | 6.30 | 9.00 |  |
| Nc1ncnc2c1c(Cl)cn2[C@@H]1C[C@H](Oc2cc(F)c(F)c3c2CNCC3)[C@@H](O)[C@H]1O [Example 128, (1S,2S,3R,5S)-3-(4-amino-5-chloro-7H-pyrrolo[2,3-d]pyrimidin-7-yl)-5-((5,6-difluoro-1,2,3,4-tetrahydroisoquinolin-8-yl)oxy)cyclopentane-1,2-diol] | 6.22 | 9.00 |  |
| Cc1cc2c(c(O[C@H]3C[C@@H](n4cc(Cl)c5c(N)ncnc54)[C@H](O)[C@@H]3O)c1)CNCC2 [Example 129, (1S,2S,3R,5S)-3-(4-amino-5-chloro-7H-pyrrolo[2,3-d]pyrimidin-7-yl)-5-((6-methyl-1,2,3,4-tetrahydroisoquinolin-8-yl)oxy)cyclopentane-1,2-diol] | 5.98 | 9.00 |  |
| Nc1ncnc2c1c(Cl)cn2[C@@H]1C[C@H](Oc2cc(Cl)cc3c2CNCC3)[C@@H](O)[C@H]1O [Example 130, (1S,2S,3R,5S)-3-(4-amino-5-chloro-7H-pyrrolo[2,3-d]pyrimidin-7-yl)-5-((6-chloro-1,2,3,4-tetrahydroisoquinolin-8-yl)oxy)cyclopentane-1,2-diol] | 6.01 | 9.00 |  |
| Cc1ncc2c(F)cn([C@@H]3C[C@H](Oc4ccc(F)c5c4CNCC5)[C@@H](O)[C@H]3O)c2n1 [Example 132, (1S,2S,3S,5R)-3-((5-fluoro-1,2,3,4-tetrahydroisoquinolin-8-yl)oxy)-5-(5-fluoro-2-methyl-7H-pyrrolo[2,3-d]pyrimidin-7-yl)cyclopentane-1,2-diol] | 5.56 | 8.70 |  |
| Nc1ncnc2c1c(Cl)cn2[C@@H]1C[C@H](Oc2ccc(F)c3c2CNCC3)[C@@H](O)[C@H]1O [Example 133, (1S,2S,3R,5S)-3-(4-amino-5-chloro-7H-pyrrolo[2,3-d]pyrimidin-7-yl)-5-((5-fluoro-1,2,3,4-tetrahydroisoquinolin-8-yl)oxy)cyclopentane-1,2-diol] | 6.35 | 9.00 |  |
| Nc1ncnc2c1c(Br)cn2[C@@H]1C[C@H](Oc2ccc(F)c3c2CNCC3)[C@@H](O)[C@H]1O [Example 134, (1S,2S,3R,5S)-3-(4-amino-5-bromo-7H-pyrrolo[2,3-d]pyrimidin-7-yl)-5-((5-fluoro-1,2,3,4-tetrahydroisoquinolin-8-yl)oxy)cyclopentane-1,2-diol] | 6.19 | 9.00 |  |
| Cc1ncnc2c1ccn2[C@@H]1C[C@H](Oc2ccc(F)cc2[C@H](C)N)[C@@H](O)[C@H]1O [Example 138, (1S,2S,3S,5R)-3-(2-((S)-1-aminoethyl)-4-fluorophenoxy)-5-(4-methyl-7H-pyrrolo[2,3-d]pyrimidin-7-yl)cyclopentane-1,2-diol] | 5.83 | 8.70 |  |
| Cc1ncnc2c1ccn2[C@@H]1C[C@H](Oc2cc(Cl)c(F)cc2[C@H](C)N)[C@@H](O)[C@H]1O [Example 139, (1S,2S,3S,5R)-3-(2-((S)-1-aminoethyl)-5-chloro-4-fluorophenoxy)-5-(4-methyl-7H-pyrrolo[2,3-d]pyrimidin-7-yl)cyclopentane-1,2-diol] | 6.20 | 9.00 |  |
| Cc1ncnc2c1ccn2[C@@H]1C[C@H](Oc2cc(Cl)c(F)cc2[C@@H](C)N)[C@@H](O)[C@H]1O [Example 140, (1S,2S,3S,5R)-3-(2-((R)-1-aminoethyl)-5-chloro-4-fluorophenoxy)-5-(4-methyl-7H-pyrrolo[2,3-d]pyrimidin-7-yl)cyclopentane-1,2-diol] | 5.62 | 7.77 |  |
| Cc1ncnc2c1ccn2[C@@H]1C[C@H](Oc2ccc(Cl)c(F)c2CN)[C@@H](O)[C@H]1O [Example 143, (1S,2S,3S,5R)-3-(2-(aminomethyl)-4-chloro-3-fluorophenoxy)-5-(4-methyl-7H-pyrrolo[2,3-d]pyrimidin-7-yl)cyclopentane-1,2-diol] | 5.85 | 8.22 |  |
| Cc1ncnc2c1ccn2[C@@H]1C[C@H](Oc2ccc(Cl)cc2CCN)[C@@H](O)[C@H]1O [Example 146, (1S,2S,3S,5R)-3-(2-(2-aminoethyl)-4-chlorophenoxy)-5-(4-methyl-7H-pyrrolo[2,3-d]pyrimidin-7-yl)cyclopentane-1,2-diol] |  | 7.57 | 5.15 |
